Measured values reported in ChEMBL document CHEMBL6092155, “211At radiolabeled APBA-FAPI for enhanced targeted-alpha therapy of glioma” (Eur J Med Chem, 2024).
One block for each molecule: values may come before it. Activity calls are given as the source filed them. No cut-off for these calls is given here.

How the values were obtained:
[1] = Octanol/[…] partition coefficient, log P of the compound; assay type: physicochemical
[2] = Stability of the compound in fetal bovine serum incubated for 3 to 24 hrs by RCP analysis (Del); assay type: ADME, cell-free; details: cattle, time 3-24 hrs
[3] = Drug penetration in human FAPalpha-positive U-87 MG cells assessed as blood brain barrier translocation rate incubated upto 4 hrs by invitro BBB assay (reference value: 0.54+/-0.12%); assay type: ADME, cell-based; details: u-87mg atcc
[4] = Drug uptake in human FAPalpha-negative MCF7 cells incubated for 120 min by gamma counter analysis relative to control; assay type: ADME, cell-based; details: mcf7, 2 h
[5] = Stability of the compound in fetal bovine serum assessed as radiochemical purity (RCP) incubated for 3 to 24 hrs relative to control; assay type: ADME, cell-free, Bos taurus; details: cattle, time 3-24 hrs
[6] = Stability of compound in PBS incubated for 3 to 24 hrs assessed as radiochemical purity (RCP) relative to control; assay type: physicochemical; details: buffer; time 3-24 hrs
Albumin [7] = biological target: T1, Albumin (Homo sapiens, UniProt P02768); experiment: Binding affinity to human serum albumin assessed as binding rate incubated for 30 min relative to control; assay type: ADME; details: isolated protein, 0.5 h
T1 sequence (P02768 whole entry): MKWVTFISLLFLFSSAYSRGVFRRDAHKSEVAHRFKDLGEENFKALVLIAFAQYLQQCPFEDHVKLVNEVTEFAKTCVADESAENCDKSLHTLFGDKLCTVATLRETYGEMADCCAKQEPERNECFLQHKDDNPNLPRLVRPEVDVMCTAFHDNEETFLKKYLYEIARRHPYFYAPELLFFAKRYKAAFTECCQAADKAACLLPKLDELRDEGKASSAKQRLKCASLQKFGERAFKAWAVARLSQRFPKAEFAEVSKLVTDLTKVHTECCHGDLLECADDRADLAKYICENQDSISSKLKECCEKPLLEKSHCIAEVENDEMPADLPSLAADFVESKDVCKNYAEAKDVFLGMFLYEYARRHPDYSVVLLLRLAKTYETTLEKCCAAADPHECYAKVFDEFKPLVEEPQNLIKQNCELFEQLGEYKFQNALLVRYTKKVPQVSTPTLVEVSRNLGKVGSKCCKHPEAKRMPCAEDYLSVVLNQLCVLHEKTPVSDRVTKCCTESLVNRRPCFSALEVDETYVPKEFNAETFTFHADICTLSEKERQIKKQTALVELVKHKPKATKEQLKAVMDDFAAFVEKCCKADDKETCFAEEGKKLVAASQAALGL

Albumin [8] = biological target: T1, Albumin; experiment: Binding affinity to human serum albumin assessed as decrease in HAS binding incubated for 30 mins under warfarin blocking relative to control; assay type: ADME; parameters: scale not given: the % may be the effect or the level left; details: isolated protein, 0.5 h
Albumin [9] = biological target: T1, Albumin; experiment: Binding affinity to human serum albumin assessed as decrease in HAS binding incubated for 30 mins under ibuprofen relative to control; assay type: ADME; parameters: scale not given: the % may be the effect or the level left; details: isolated protein, 0.5 h
[10] = Drug uptake in human FAPalpha-positive U-87 MG cells incubated for 30 to 120 min by gamma counter analysis relative to control; assay type: ADME, cell-based; details: u-87mg atcc, time 30-120 min
[11] = Drug uptake in human U-87 MG cells incubated for 120 min under FAPI-04 monomer blocking condition by gamma counter analysis relative to control; assay type: ADME, cell-based; details: u-87mg atcc, 2 h
U-87 MG [12] = experiment: Antiproliferative activity against human U-87 MG cells assessed as inhibition of cell viability at 18.5 KBq incubated for 12 hrs followed by replacement with fresh media and measured after 24 hrs by CCK-8 method relative to control; assay type: functional, U-87MG ATCC
U-87 MG [13] = experiment: Antiproliferative activity against human U-87 MG cells assessed as inhibition of cell viability at 148 KBq incubated for 12 hrs followed by replacement with fresh media and measured after 24 hrs by CCK-8 method relative to control; assay type: functional, U-87MG ATCC
U-87 MG [14] = experiment: Antitumor activity against human U-87 MG cells xenografted in female BALB/c nude mouse model assessed as tumor growth inhibition at 0.37 MBq, iv measured after 8 days postinjection relative to control; assay type: functional, U-87MG ATCC; details: time 8 day
U-87 MG [15] = experiment: Antitumor activity against human U-87 MG cells xenografted in female BALB/c nude mouse model assessed as tumor growth inhibition at 0.74 MBq, iv measured after 8 days postinjection relative to control; assay type: functional, U-87MG ATCC; details: time 8 day
U-87 MG [16] = experiment: Antitumor activity against human U-87 MG cells xenografted in female BALB/c nude mouse model assessed as tumor growth inhibition at 1.11 MBq, iv measured after 8 days postinjection relative to control; assay type: functional, U-87MG ATCC; details: time 8 day
U-87 MG [17] = experiment: Antitumor activity against human U-87 MG cells xenografted in female BALB/c nude mouse model assessed as tumor growth inhibition at 0.37 MBq, iv measured after 36 days postinjection relative to control; assay type: functional, U-87MG ATCC; details: time 36 day
U-87 MG [18] = experiment: Antitumor activity against human U-87 MG cells xenografted in female BALB/c nude mouse model assessed as tumor growth inhibition at 0.74 MBq, iv measured after 36 days postinjection relative to control; assay type: functional, U-87MG ATCC; details: time 36 day
[19] = Toxicity in female BALB/c nude mouse model assessed as animal death at 0.74 MBq, iv measured after 38 days; assay type: organism-based; details: in vivo, 912 h, time 38 day
[20] = Toxicity in female BALB/c nude mouse model assessed as animal death at 1.11 MBq, iv measured after 10 days; assay type: organism-based; details: in vivo, 240 h, time 10 day
[21] = Toxicity in female BALB/c nude mouse model assessed as body weight loss measured at 0.74 to 1.11 MBq, iv after 40 days of postinjection; assay type: organism-based; details: in vivo, 960 h, dose 0.74-1.11 MBq, time 40 day
[22] = Toxicity in female BALB/c nude mouse assessed as red blood cell count at 0.37 to 1.11 MBq, iv measured after 7 days of postinjection by blood analysis; assay type: organism-based; details: in vivo, 168 h, dose 0.37-1.11 MBq, time 7 day
[23] = Toxicity in female BALB/c nude mouse assessed as effect on liver at 0.37 to 1.11 MBq, iv measured after 7 days of postinjection by H and E staining based analysis; assay type: organism-based; details: in vivo, 168 h, dose 0.37-1.11 MBq, time 7 day
[24] = Toxicity in female BALB/c nude mouse assessed as hemoglobin indices at 0.37 to 1.11 MBq, iv measured after 7 days of postinjection by blood analysis; assay type: organism-based; details: in vivo, 168 h, dose 0.37-1.11 MBq, time 7 day
[25] = Toxicity in female BALB/c nude mouse assessed as decrease platelet count at 0.37 to 1.11 MBq, iv measured after 7 days of postinjection by blood analysis; assay type: organism-based; details: in vivo, 168 h, dose 0.37-1.11 MBq, time 7 day
[26] = Toxicity in female BALB/c nude mouse assessed as effect on lung at 0.37 to 1.11 MBq, iv measured after 7 days of postinjection by H and E staining based analysis; assay type: organism-based; details: in vivo, 168 h, dose 0.37-1.11 MBq, time 7 day
[27] = Toxicity in female BALB/c nude mouse assessed as effect on kidney at 0.37 to 1.11 MBq, iv measured after 7 days of postinjection by H and E staining based analysis; assay type: organism-based; details: in vivo, 168 h, dose 0.37-1.11 MBq, time 7 day
[28] = Toxicity in female BALB/c nude mouse assessed as effect on stomach at 0.37 to 1.11 MBq, iv measured after 7 days of postinjection by H and E staining based analysis; assay type: organism-based; details: in vivo, 168 h, dose 0.37-1.11 MBq, time 7 day
[29] = Toxicity in female BALB/c nude mouse assessed as thyroid gland damage at 1.11 MBq, iv measured after 7 days of postinjection by H and E staining based analysis; assay type: organism-based; details: in vivo, 168 h, time 7 day
[30] = Drug uptake in human FAPalpha-positive U-87 MG cells incubated for 120 min by gamma counter analysis relative to control; assay type: ADME, cell-based; details: u-87mg atcc, 2 h
[31] = Drug uptake in mouse FAPalpha-negative 4T1 cells incubated for 120 min by gamma counter analysis relative to control; assay type: ADME, cell-based; details: 4t1, 2 h
U-87 MG [32] = experiment: Antitumor activity against human U-87 MG cells assessed as inhibition of cell proliferation by measuring reduction in number of Ki67 positive cells at 1.11 MBq, iv administered for 7 days by immunohistochemical analysis; assay type: functional, organism-based; details: U-87MG ATCC, time 7.0 day, tested as the 211At-labelled form
U-87 MG [33] = experiment: Antitumor activity against human U-87 MG cells assessed as induction of apoptosis in tumor tissue at 1.11 MBq, iv by TUNEL analysis; assay type: functional, organism-based; details: U-87MG ATCC, tested as the 211At-labelled form
U-87 MG [34] = experiment: Antitumor activity against human U-87 MG cells xenografted in female BALB/c nude mouse model assessed as increase in survival time at 0.74 to 1.11 MBq, iv measured upto 70 days postinjection; assay type: functional, organism-based; details: U-87MG ATCC, dose 0.74-1.11 MBq, time <= 70.0 day, tested as the 211At-labelled form

SMILES: N#C[C@@H]1CC(F)(F)CN1C(=O)CNC(=O)c1ccnc2ccc(OCCCN3CCN(C(=O)c4ccc([211At])cc4)CC3)cc12
logP [1]: 1.96
Stability [2]: 71%

SMILES: N#C[C@@H]1CC(F)(F)CN1C(=O)CNC(=O)c1ccnc2ccc(OCCCN3CCN(C(=O)CCCc4ccc([211At])cc4)CC3)cc12
Stability [5]: 91.4%
Stability [6]: 88.17%
Activity (Albumin [7]): 7.63%
logP [1]: 2.37
Activity (Albumin [8]): 3.54%
Activity (Albumin [9]): 4.01%
Drug uptake [3]: 2.06%
Drug uptake [10]: 40.8%
Drug uptake [11]: 12.86%
inhibition (INH) (U-87 MG [12]): 70.95%
inhibition (INH) (U-87 MG [13]): 48.58%
TGI (U-87 MG [14]): 84.98%
TGI (U-87 MG [15]): 92.28%
TGI (U-87 MG [16]): 94.99%
TGI (U-87 MG [17]): 10.46%
TGI (U-87 MG [18]): 4.2%
Activity [19]: Toxic
Activity [20]: Toxic
Activity [21]: Non-toxic
Activity [22]: Non-toxic
Activity [23]: Non-toxic
Activity [24]: Non-toxic
Activity [25]: Toxic
Activity [26]: Non-toxic
Activity [27]: Non-toxic
Activity [28]: Non-toxic
Activity [29]: Toxic

SMILES: N#C[C@@H]1CC(F)(F)CN1C(=O)CNC(=O)c1ccnc2ccc(OCCCN3CCN(C(=O)CCCc4ccc([At])cc4)CC3)cc12
Activity (U-87 MG [32]): Active
Activity (U-87 MG [33]): Active
Activity (U-87 MG [34]): Active

More lines, now with the values ahead:

logP [1]: 2.12
SMILES: N#C[C@@H]1CC(F)(F)CN1C(=O)CNC(=O)c1ccnc2ccc(OCCCN3CCN(C(=O)c4ccc([131I])cc4)CC3)cc12

logP [1]: 2.43
Drug uptake [3]: 3.71%
Drug uptake [4]: 7.77%
SMILES: N#C[C@@H]1CC(F)(F)CN1C(=O)CNC(=O)c1ccnc2ccc(OCCCN3CCN(C(=O)CCCc4ccc([131I])cc4)CC3)cc12

Drug uptake [30]: 2.75%
Drug uptake [31]: 11.22%
SMILES: [211AtH]
